Data as given in patent US12194105B2, “Composition and method for new antimicrobial agents with secondary mode of action provided by conjugation of an antimicrobial to a guanidinium-rich molecular transporter” (The Board of Trustees of the Leland Stanford Junior …, priority 2018, dated 2025).
≈ marks a conversion by molar mass, not a printed value. Entries after “also recorded” stand apart in the source; their conditions may differ. Like-named read-outs stand apart in the source and are kept apart here.

What was measured:
E. coli UTI89 [1] = system: E. coli UTI89
Method: (§1) MICS were determined using broth microdilution in accordance with CLSI methods.^6 One day prior to each MIC experiment, bacterial strains were streaked for single colonies from frozen glycerol stocks stored at −80° C. on Tryptic soy agar. 3-5 colonies from each plate were harvested with a disposable inoculating loop and resuspended in 500 μL PBS. This suspension was diluted in sterile-filtered PBS to an OD of 0.1(˜1×10^8 CFU/ml), and the OD 0.1 suspension was diluted 1:100 in Mueller-Hinton Broth (MHB, Difco 257530) just prior to inoculating the 96-well polypropylene treatment plate. The treatment plate was prepared as follows: 20-fold stocks of the highest concentration of compound tested were prepared in sterile-filtered PBS and were subsequently diluted in MHB to prepare working stocks at 2-times the final concentration. 100 μL of each working stock was placed in the highest concentration treatment well, and the working stocks were 2-fold serially diluted in MHB to lend final treatment volumes of 50 μL/well. 50 μL of adjusted inoculum was added to each well to lend a total volume of 100 μL/well and a final inoculum density of ˜5×10^5 colony forming units (CFU/ml). 10 μL of inoculum in growth control wells was serially diluted in PBS and plated on Tryptic soy agar to verify accurate starting density of cells. Growth controls were included in each plate, where no treatment was applied, along with media only controls. Edge wells were filled with PBS. The completed assay plate was sealed with parafilm, placed in a lidded plastic tray lined with moistened paper towels, and incubated at 37° C. for 18-20 h.

[2] = system: MW2 stationary-phase cells; assay: Bacterial membrane integrity with SYTOX Green; settings: V, V-r8 20 μM; lysostaphin 10×MIC
Description: V-r8 mode-of-action analysis using stationary-phase MW2. All data points represent the median of biological duplicates from a representative experiment; all experiments were repeated on a different day to ensure reproducibility. V-r8 was the TFA salt, and PBS was used for the cell only control. […] Assay detection limit=2.3. […] Compound data was normalized to cell-only control data.
Evaluation of Bacterial Membrane Integrity with SYTOX Green. The SYTOX Green assay was adapted from the literature. Briefly, to a black wall clear-bottom 96-well plate (Costar 3603) was added 50 μL of PBS per well containing antibiotics at 2-times the indicated concentration. 1 mL of a stationary phase MW2 culture was pelleted at 10,000 g for 1 min and washed 3 times with the same volume of sterile-filtered PBS. The washed cells were diluted to OD600=0.1 (˜4×10^7 CFU/mL) with PBS. SYTOX Green (Molecular Probes) was added to the diluted stationary phase suspension for a final concentration of 5 μM and incubated for 0.5 h at room temperature in the dark. 50 μL of the bacteria/SYTOX Green mixture was added to each well of 96-well plates containing antibiotics and fluorescence was measured at 37° C. with shaking for up to 4 h using a spectrophotometer (SpectraMax M3, Molecular Devices) with excitation and emission wavelengths of 485 and 525 nm, respectively. Lysostaphin (1.25 μg/mL) was used as a positive control. The experiment was performed twice on separate days.

V. cholerae = assay: Time-kill study of V. cholerae; type: cell-based; settings: equivalent concentrations
Method: FIG. 11A-11B. Time-kill study of V. cholerae treated with compounds. (FIG. 11A) Treatments were performed at 20 μM in media. (FIG. 11B) Treatments were performed at 2×MIC in PBS. Kan refers to kanamycin, a FDA-approved aminoglycoside. Data points are from a representative experiment. Detection limit=2.3 Log (CFU/ml).

MRSA USA400 MW2 = assay: Time-kill in MHB; type: cell-based, Staphylococcus aureus; settings: 20 μM; detection limit 2.3 Log(CFU/ml)
Method: FIG. 9. Influence of V and V-r8 (both at 20 μM) on cell viability for MRSA USA400 MW2 in MHB.

USA300 LAC biofilm wound = assay: Murine skin wound excisional biofilm model; settings: 0.05% solution topical, 5 h treatment, 24 h post infection, compared to untreated mice
[3] = system: V. cholerae El Tor A1552R
MRSA USA300 biofilms = assay: Biofilm reduction in vitro after 5 h treatment, Calgary Biofilms Device; type: cell-based, Staphylococcus aureus; settings: for Log CFU/ml counts: 5 h treatment, median (IQR), untreated 4.5, detection limit 2 Log
E. faecium Van-Resistant [4] = system: E. faecium Van-Resistant
Method: as §1

P. aeruginosa PA14 [5] = settings: P. aeruginosa PA14, one trial only
Method: (§2) Determination of MICs. MICS were determined using broth microdilution in accordance with CLSI methods.^6 One day prior to each MIC experiment, bacterial strains were streaked for single colonies from frozen glycerol stocks stored at −80° C. on Tryptic soy agar. 3-5 colonies from each plate were harvested with a disposable inoculating loop and resuspended in 500 μL PBS. This suspension was diluted in sterile-filtered PBS to an OD of 0.1(˜1×10^8 CFU/ml), and the OD 0.1 suspension was diluted 1:100 in Mueller-Hinton Broth (MHB, Difco 257530) just prior to inoculating the 96-well polypropylene treatment plate. The treatment plate was prepared as follows: 20-fold stocks of the highest concentration of compound tested were prepared in sterile-filtered PBS and were subsequently diluted in MHB to prepare working stocks at 2-times the final concentration. 100 μL of each working stock was placed in the highest concentration treatment well, and the working stocks were 2-fold serially diluted in MHB to lend final treatment volumes of 50 μL/well. 50 μL of adjusted inoculum was added to each well to lend a total volume of 100 μL/well and a final inoculum density of ˜5×10^5 colony forming units (CFU/ml). 10 μL of inoculum in growth control wells was serially diluted in PBS and plated on Tryptic soy agar to verify accurate starting density of cells. […]

[6] = system: MRSA USA300 LAC persister cells; assay: Time-kill of persister cells generated with ciprofloxacin; type: cell-based, Staphylococcus aureus; settings: for killing of persister cells: in words
Method: FIG. 1. Time-kill study of MRSA USA300 LAC persister cells treated with vancomycin and V-r8. MRSA persister cells were generated by treatment with ciprofloxacin at 40 μM for 6 h. Vancomycin or V-r8 (TFA salt) was then introduced at a concentration of 10 μM. Data points are median Log(CFU/ml) values from 2 independent experiments (N=2) where treatments were performed in singlicate. Error bars represent IQR. Detection limit: 1 Log(CFU/ml).
Evaluation of antibacterial activity against persister cells. USA300 persister cells were generated by diluting an overnight culture of USA300 bacteria 1:1000 in 4 mL MHB and growing to OD 0.5 at 37° C. with 200 rpm shaking. […] Upon 6 h treatment with ciprofloxacin, 500 μL culture aliquots were added to Eppendorf tubes and compounds were added from concentrated stocks (mM range) to yield desired final concentrations (10-20 μM). […] CFU/ml were plated at indicated time points to monitor treatment efficacy. The experiment was performed at least twice on separate days.

MRSA (USA400MW2) [7] = system: MRSA (USA400MW2)
Method: as §1

[8] = 0.05% V-r8, absence of bacteria
Method: To examine in vivo cytotoxicity, sterile wounds were generated and inoculated only with water (FIG. 8A) or 0.05% V-r8 (FIG. 8B) in the absence of bacteria. Wound tissue was harvested after 3 days and examined by Hematoxylin & Eosin staining. […] Epi: skin epidermis; Der: skin dermis. Scale bar represents 100 μm. Images are representative of 3 independent samples.
In vivo histological cytotoxicity assessment. […] Samples were fixed in 4% paraformaldehyde in PBS and incubated in 20% sucrose for 24 hours. Tissues were then embedded into Optical Cutting Temperature (OCT) compound (Sakura, California) and snap frozen in liquid nitrogen. 12 μm sections were obtained on a Leica CM1860 UV cryotome (Leica Biosystems, Ernst-Leitz Strasse, Germany), stained with hemotoxylin and eosin (H&E), and visualized using an Axio Scan.Z1 slide scanner (Carl Zeiss, Göttingen, Germany) under 20×/0.8 Apochrome objective as previously described.

MRSA (USA300LAC) [9] = system: MRSA (USA300LAC)
Method: (§3) Determination of MICs. MICS were determined using broth microdilution in accordance with CLSI methods.^6 One day prior to each MIC experiment, bacterial strains were streaked for single colonies from frozen glycerol stocks stored at −80° C. on Tryptic soy agar. 3-5 colonies from each plate were harvested with a disposable inoculating loop and resuspended in 500 μL PBS. This suspension was diluted in sterile-filtered PBS to an OD of 0.1(˜1×10^8 CFU/ml), and the OD 0.1 suspension was diluted 1:100 in Mueller-Hinton Broth (MHB, Difco 257530) just prior to inoculating the 96-well polypropylene treatment plate. The treatment plate was prepared as follows: 20-fold stocks of the highest concentration of compound tested were prepared in sterile-filtered PBS and were subsequently diluted in MHB to prepare working stocks at 2-times the final concentration. 100 μL of each working stock was placed in the highest concentration treatment well, and the working stocks were 2-fold serially diluted in MHB to lend final treatment volumes of 50 μL/well. 50 μL of adjusted inoculum was added to each well to lend a total volume of 100 μL/well and a final inoculum density of ˜5×10^5 colony forming units (CFU/ml). 10 μL of inoculum in growth control wells was serially diluted in PBS and plated on Tryptic soy agar to verify accurate starting density of cells. Growth controls were included in each plate, where no treatment was applied, along with media only controls. Edge wells were filled with PBS. The completed assay plate was sealed with parafilm, placed in a lidded plastic tray lined with moistened paper towels, and incubated at 37° C. for 18-20 h.

MSSA (29213) [10] = system: MSSA (29213)
Method: as §1

planktonic S. aureus = assay: Antibacterial activity against planktonic bacteria (summary over strains); settings: in words
Method: as §2

H. pylori = assay: MIC, Gram-negative planktonic strains; settings: Helicobacter pylori
Method: as §2

E. faecium Van-Resistant [11] = assay: microbe, parasite or virus in culture; settings: Enterococcus faecium, read-out: E. faecium MICs Van-Resistant
Method: as §1

E. coli UTI89 [12] = assay: microbe, parasite or virus in culture; settings: Escherichia coli, UTI89, read-out: Median MIC
Method: as §1

MSSA (29213) [13] = assay: microbe, parasite or virus in culture; settings: Staphylococcus aureus, read-out: Minimum Inhibitory Concentration (MIC)
Method: as §1

[14] = system: E. faecium Van-Susceptible; assay: microbe, parasite or virus in culture; settings: Enterococcus faecium, read-out: E. faecium MICs Van-Susceptible
Method: as §2

MRSA (USA300LAC) [15] = assay: microbe, parasite or virus in culture; settings: Staphylococcus aureus, read-out: Minimum Inhibitory Concentration (MIC)
Method: as §3

[16] = system: E. faecalis Van-Resistant; assay: microbe, parasite or virus in culture; settings: Enterococcus faecalis, read-out: E. faecalis MICs Van-Resistant
Method: as §1

[17] = system: E. faecalis Van-Susceptible; assay: microbe, parasite or virus in culture; settings: Enterococcus faecalis, read-out: E. faecalis MICs Van-Susceptible
Method: as §2

P. aeruginosa PA14 [18] = assay: microbe, parasite or virus in culture; settings: Pseudomonas aeruginosa, PA14, read-out: Median MIC
Method: as §2

[19] = system: E. faecalis Van-Resistant
Method: as §1

MRSA (USA400MW2) [20] = assay: microbe, parasite or virus in culture; settings: Staphylococcus aureus, read-out: Minimum Inhibitory Concentration (MIC)
Method: as §1

[21] = system: V. cholerae El Tor A1552R; assay: microbe, parasite or virus in culture; settings: Vibrio cholerae, ELTORA1552R, read-out: Median MIC
A. baumannii = assay: MIC, Gram-negative planktonic strains; settings: Acinetobacter baumannii
Method: as §2

[22] = system: E. faecium Van-Susceptible
Method: as §2

[23] = system: E. faecalis Van-Susceptible
Method: as §2

[24] = median (IQR), MRSA (USA300LAC), 24 h treatment in media
[25] = median (IQR), MSSA (29213), 24 h treatment in media

Method for MRSA (USA300LAC) biofilm: (§4) Determination of MBECs. Minimum Biofilm Eradication Concentrations (MBECs) were determined in accordance with literature methods. Prior to each assay, 4 mL Tryptic Soy broth (TSB) was inoculated with one colony of S. aureus 29213, MW2 or USA300 and incubated at 37° C., 200 rpm shaking until stationary phase was reached (OD>2). The cultures were adjusted to in TSB to achieve a final inoculum density of 1×10^7 CFU/ml, and 150 μL of inoculum was added to each well of a 96-well base plate (Nunc™ 269787), and a plate lid containing 96 pegs (Nunc™ 445497) was added to the base. The entire apparatus was sealed with parafilm and placed in a sealed plastic bag lined with moistened paper towels for 48 h growth with shaking (150 rpm) at 35° C.
(§5) To prepare biofilm treatment plates, 20-fold stocks of the highest concentration tested were made in sterile-filtered PBS. The 20-fold stocks were diluted in TSB to yield 2-fold working stocks; 200 μL of working stock was added to the highest concentration treatment well and 2-fold serially diluted across the plate to lend final treatment volumes of 100 μL/well. TSB was added to treatment wells to yield final volume of 200 μL/well. PBS was added to the edge wells of the 96-well plate.
(§6) Prior to treatment, 48 h biofilms were rinsed in a 96-well plate containing 200 μL PBS/well for one minute and then the peg lid was transferred to the treatment plate. The plate was parafilmed and incubated at 35° C. for 24 h with 150 rpm shaking. Upon 24 h treatment, the peg lid was removed, rinsed in 200 μL PBS buffer twice for 1 min each, then transferred to a recovery plate containing 200 μL TSB+1% Tween-20 per well. The apparatus was placed in a steel tray and sonicated in a water bath sonicator (Branson 1510) for 10 min to dislodge biofilms. The peg lid was subsequently removed and the media-containing plate was incubated for 20 h at 35° C. with 150 rpm shaking to recover biofilms. The MBEC was read as the lowest treatment concentration where no growth occurred, as determined by measuring by OD600 on a plate reader. […]
Method for MRSA (USA400MW2) biofilm: as §4
To prepare biofilm treatment plates, 20-fold stocks of the highest concentration tested were made in sterile-filtered PBS. […]
Prior to treatment, 48 h biofilms were rinsed in a 96-well plate containing 200 μL PBS/well for one minute and then the peg lid was transferred to the treatment plate. […] The MBEC was read as the lowest treatment concentration where no growth occurred, as determined by measuring by OD600 on a plate reader. […]
Method for MSSA (29213) biofilm: as §4, §5, §6
Method for S. aureus biofilms: as §4, §5
Prior to treatment, 48 h biofilms were rinsed in a 96-well plate containing 200 μL PBS/well for one minute and then the peg lid was transferred to the treatment plate. The plate was parafilmed and incubated at 35° C. for 24 h with 150 rpm shaking. Upon 24 h treatment, the peg lid was removed, rinsed in 200 μL PBS buffer twice for 1 min each, then transferred to a recovery plate containing 200 μL TSB+1% Tween-20 per well. The apparatus was placed in a steel tray and sonicated in a water bath sonicator (Branson 1510) for 10 min to dislodge biofilms. The peg lid was subsequently removed and the media-containing plate was incubated for 20 h at 35° C. with 150 rpm shaking to recover biofilms. The MBEC was read as the lowest treatment concentration where no growth occurred, as determined by measuring by OD600 on a plate reader. The values reported are median values from a minimum of two experiments performed on different days.

Compound: CN[C@H](CC(C)C)C(=O)N[C@H]1C(=O)N[C@@H](CC(N)=O)C(=O)N[C@H]2C(=O)N[C@H]3C(=O)N[C@H](C(=O)N[C@H](C(=O)NCCCCCC(=O)N[C@H](CCCNC(=N)N)C(=O)N[C@H](CCCNC(=N)N)C(=O)N[C@H](CCCNC(=N)N)C(=O)N[C@H](CCCNC(=N)N)C(=O)N[C@H](CCCNC(=N)N)C(=O)N[C@H](CCCNC(=N)N)C(=O)N[C@H](CCCNC(=N)N)C(=O)N[C@H](CCCNC(=N)N)C(N)=O)c4cc(O)cc(O)c4-c4cc3ccc4O)[C@H](O)c3ccc(c(Cl)c3)Oc3cc2cc(c3O[C@@H]2O[C@H](CO)[C@@H](O)[C@H](O)[C@H]2O[C@H]2C[C@](C)(N)[C@H](O)[C@H](C)O2)Oc2ccc(cc2Cl)[C@H]1O [V-r8, vancomycin-D-octaarginine]
- Median MIC (E. coli UTI89 [1]; E. coli UTI89): ≥32 µM
- Minimum Biofilm Eradication Concentration (MBEC) (MRSA (USA300LAC) biofilm; [24]): 9.5 µM
- SYTOX Green uptake (membrane damage) [2]: no SYTOX Green uptake
- killing relative to V, r8 and untreated cells (V. cholerae; after 4 h): ~5 orders of magnitude
- higher killing than kanamycin (V. cholerae; over the first 2 h): 2-3 orders of magnitude
- cell killing, time-kill in MHB (MRSA USA400 MW2): rapid killing; also recorded: eradicated MRSA to the CFU/ml detection limit
- reduction in biofilm bacterial load (CFU/wound) (USA300 LAC biofilm wound): significant reduction; also recorded: as effective as 2% fusidic acid
- Median MIC [3]: 10 µM
- Log CFU/ml counts (MRSA USA300 biofilms; 16 μM in PBS): 2.2 (0.2) Log CFU/ml
- Log CFU/ml counts (MRSA USA300 biofilms; 32 μM in PBS): 2.0 (0) Log CFU/ml
- biofilm-associated MRSA eradicated (MRSA USA300 biofilms; 5 h treatment at 16 and 32 μM): 98%
- improvement against VRE faecium (over vancomycin) (E. faecium Van-Resistant [4]): 128 fold
- Minimum Biofilm Eradication Concentration (MBEC) (MSSA (29213) biofilm; [25]): 16 µM
- better potency over vancomycin in diminishing growth of biofilm-associated bacteria (S. aureus biofilms; in PBS): 160 fold
- better potency over vancomycin in diminishing growth of biofilm-associated bacteria (S. aureus biofilms; in media): > 31 fold
- minimum biofilm eradication concentrations (MBECs) (S. aureus biofilms; range over S. aureus strains of Table 1): 2.5 to 16 µM
- Median MIC (P. aeruginosa PA14 [5]): >32 µM
- efficacy against persister cells relative to vancomycin ([6]; at 20 μM): > 1500 fold
- killing of persister cells [6]: enhanced killing of persister cells
- Minimum Inhibitory Concentration (MIC) (MRSA (USA400MW2) [7]; median (IQR), MRSA (USA400MW2)): 0.94 (0.2) μM
- acute toxicity, open wound [8]: no acute toxicity
- Minimum Inhibitory Concentration (MIC) (MRSA (USA300LAC) [9]; median (IQR), MRSA (USA300LAC)): 2.0 (0.1) μM
- Minimum Inhibitory Concentration (MIC) (MSSA (29213) [10]; median (IQR), MSSA (29213)): 1.6 (0.5) μM
- antimicrobial activity against planktonic S. aureus (planktonic S. aureus): single digit micromolar

Compound: CN[C@H](CC(C)C)C(=O)N[C@H]1C(=O)N[C@@H](CC(N)=O)C(=O)N[C@H]2C(=O)N[C@H]3C(=O)N[C@H](C(=O)N[C@H](C(=O)O)c4cc(O)cc(O)c4-c4cc3ccc4O)[C@H](O)c3ccc(c(Cl)c3)Oc3cc2cc(c3O[C@@H]2O[C@H](CO)[C@@H](O)[C@H](O)[C@H]2O[C@H]2C[C@](C)(N)[C@H](O)[C@H](C)O2)Oc2ccc(cc2Cl)[C@H]1O [Vancomycin]
- MIC (H. pylori): > 32 µM
- Minimum Biofilm Eradication Concentration (MBEC) (MRSA (USA300LAC) biofilm; [24]): ≥400 µM
- SYTOX Green uptake (membrane damage) [2]: no SYTOX Green uptake
- MIC (E. faecium Van-Resistant [11]): 512 µM (≈ 742 µg/mL)
- MIC (E. coli UTI89 [12]): > 128 µM
- cell killing, time-kill in MHB (MRSA USA400 MW2): required longer treatment time
- MIC (MSSA (29213) [13]): 0.5 µM (≈ 0.725 µg/mL)
- MIC [14]: 0.375 µM (≈ 0.543 µg/mL)
- reduction in biofilm bacterial load (CFU/wound) (USA300 LAC biofilm wound): not statistically significant
- Log CFU/ml counts (MRSA USA300 biofilms; 16 μM in PBS): 4.3 (0.3) Log CFU/ml
- Log CFU/ml counts (MRSA USA300 biofilms; 32 μM in PBS): 5.1 (1.0) Log CFU/ml
- killing of biofilms after 5 h treatment (MRSA USA300 biofilms; 16 and 32 μM, in words): ineffective
- increase of MIC in VRE faecium (E. faecium Van-Resistant [4]; resistant versus susceptible): > 1350 fold
- MIC (MRSA (USA300LAC) [15]): 0.5 µM (≈ 0.725 µg/mL)
- Minimum Biofilm Eradication Concentration (MBEC) (MSSA (29213) biofilm; [25]): ≥500 µM
- MIC [16]: 128 µM (≈ 186 µg/mL)
- killing of persister cells [6]: ineffective
- MIC [17]: 1.5 µM (≈ 2.17 µg/mL)
- MIC (P. aeruginosa PA14 [18]): > 256 µM
- increase of MIC in VRE faecalis ([19]; resistant versus susceptible): > 85 fold
- Minimum Biofilm Eradication Concentration (MBEC) (MRSA (USA400MW2) biofilm; median (IQR), MRSA (USA400MW2), 24 h treatment in media): ≥500 µM
- MIC (MRSA (USA400MW2) [20]): 0.5 µM (≈ 0.725 µg/mL)
- MIC [21]: 100 µM (≈ 145 µg/mL)
- MIC (A. baumannii): > 32 µM

Compound: N=C(N)NCCC[C@@H](N)C(=O)N[C@H](CCCNC(=N)N)C(=O)N[C@H](CCCNC(=N)N)C(=O)N[C@H](CCCNC(=N)N)C(=O)N[C@H](CCCNC(=N)N)C(=O)N[C@H](CCCNC(=N)N)C(=O)N[C@H](CCCNC(=N)N)C(=O)N[C@H](CCCNC(=N)N)C(N)=O [r8, octa-D-arginine]
- Median MIC (E. coli UTI89 [1]; UTI89): 36 µM
- Minimum Biofilm Eradication Concentration (MBEC) (MRSA (USA300LAC) biofilm; USA300, 24 h): >80 µM
- E. faecium MICs Van-Susceptible [22]: >64 µM
- E. faecium MICs Van-Resistant (E. faecium Van-Resistant [4]; Van-Resistant): >128 µM
- Minimum Biofilm Eradication Concentration (MBEC) (MSSA (29213) biofilm; 29213) biofilm, 24 h): >80 µM
- ability to eradicate biofilms (S. aureus biofilms; in words): unable to eradicate biofilms
- E. faecalis MICs Van-Susceptible [23]: >64 µM
- killing of persister cells [6]: no activity
- Minimum Inhibitory Concentration (MIC) (MRSA (USA400MW2) [7]; USA400): 20 (0) μM
- E. faecalis MICs Van-Resistant ([19]; Van-Resistant): >64 µM
- Minimum Biofilm Eradication Concentration (MBEC) (MRSA (USA400MW2) biofilm; USA400, 24 h): >80 µM
- Minimum Inhibitory Concentration (MIC) (MRSA (USA300LAC) [9]; USA300): 40 (0) μM
- Minimum Inhibitory Concentration (MIC) (MSSA (29213) [10]; 29213): 60 (20) μM

Compound: Lysostaphin: an antibacterial enzyme that induces membrane permeabilization, positive control
- SYTOX Green uptake (membrane damage) [2]: Rapid uptake of SYTOX Green
